Test results: patent US12274732B2, “Anti-pathogen composition and methods of use thereof” (Tenfold Technologies, LLC, priority 2017, dated 2025)
Values after ≈ are worked out from the molar mass of the structure shown. Like-named read-outs stand apart in the source and are kept apart here. Positions of bridges follow the written chain, without caps; N, C: chain ends. Non-standard residues stand in square brackets, D forms with d. Residues, ends and D or L forms follow the SMILES beside them. ξ: configuration not given here. *: point of attachment. Pentadecanoyl(3ξ-OH,15-Gua) = N=C(N)NCCCCCCCCCCCCC(O)CC(=O)*; d(aThr) = C[C@@H](O)[C@@H](N)C(=O)O

Tests used:
[1] = tested on: Methicillin-resistant Staphylococcus aureus (MRSA); assay: In vitro antimicrobial activity against MRSA; type: cell-based
Protocol: (§1) Fifty organic extracts were prepared from 25 whole broth of four microbial strains (MS1479, MS2379, MS2820, and MS2414), which were fermented in different media for the antimicrobial testing. Note each whole broth culture generated one n-butanol extract from cultural supernatant and one methanol extract from cell pellets.
(§2) The antimicrobial activities of the 50 organic extracts were studied against three fungal pathogens—Candida albicans, Aspergillus fumigatus, and Cryptococcus neoformans—and five bacterial strains-Methicillin-resistant Staphylococcus aureus (MIRSA), Escherichia coli, Pseudomonas aeruginosa, Klebsiella pneumoniae, and Vancomycin-resistant Enterococcus faecium (VRE) (FIG. 2). The test concentrations for all extracts were in the range of 8-200 μg/mL (Table 3).
(§3) The antimicrobial activities of identified fusaricidins were in an in vitro study against several clinically relevant microbes. […] For the in-vitro assays against bacteria, fusaricidins were tested against methicillin-resistant Staphylococcus aureus, vancomycin-resistant Enterococcus faecium, Escherichia coli, and Pseudomonas aeruginosa using four antibacterial drugs methicillin, vancomycin, cefotaxime, and meropenem as controls. […] Fusaricidins were also tested against fungal pathogens Cryptococcus neoformans, Candida albicans, and Aspergillus fumigatus and compared with two antifungal drugs, fluconazole and amphotericin B (Table 13). Moreover, the anti-parasitic activity was also tested against L. donovani and T. brucei (Table 14).

Escherichia coli = assay: In vitro antimicrobial activity against Escherichia coli; type: cell-based
Protocol: as §1, §2, §3

L. donovani = assay: In-vitro antiparasitic activity against L. donovani; type: cell-based
Protocol: as §3

THP-1 = assay: Cytotoxicity against THP-1 cells (counter-screen of the antiparasitic assays); type: cell-based
Protocol: as §3

Cryptococcus neoformans = assay: In vitro antimicrobial activity against Cryptococcus neoformans; type: cell-based
Protocol: as §1, §2
The potent activities against the fungal pathogen C. neoformans and the gram-positive bacteria S. aureus, MRSA, and M. intracellulare were also shown in the crude extracts (FIG. 7).
as §3

Klebsiella pneumoniae = assay: In vitro antimicrobial activity against Klebsiella pneumoniae; type: cell-based
Protocol: as §1, §2

Aspergillus fumigatus = assay: In vitro antimicrobial activity against Aspergillus fumigatus; type: cell-based
Protocol: as §1, §2, §3

[2] = tested on: Vancomycin-resistant Enterococcus faecium (VRE); assay: In vitro antimicrobial activity against VRE; type: cell-based
Protocol: as §1, §2, §3

Pseudomonas aeruginosa = assay: In vitro antimicrobial activity against Pseudomonas aeruginosa; type: cell-based
Protocol: as §1, §2, §3

Candida albicans = assay: In vitro antimicrobial activity against Candida albicans; type: cell-based
Protocol: as §1, §2, §3

[3] = Heat stability of fusaricidins, whole broth autoclaved; type: physicochemical; details: fermentation whole broth autoclaved at 121.5° C. for 30 minutes
Protocol: In order to test the heat stability of fusaricidins, the fermentation whole broth was autoclaved at 121.5° C. for 30 minutes. Fusaricidin contents were analyzed before and after autoclave. Without being bound by a theory, fusaricidin A is heat stable because significant amounts of fusaricidin A were detected after the harsh heat treatment in most cases (FIG. 3B).

T. brucei = assay: In-vitro antiparasitic activity against T. brucei; type: cell-based
Protocol: as §3

[4] = Table 5, extracts tested at 8-200 μg/mL
[5] = test conc. 200-8 μg/mL (extracts), 100-4 or 10-0.4 μg/mL (drugs)
[6] = Table 12, highest test conc. fusaricidins 20, controls 100 μg/mL
[7] = Table 12, lowest concentration that allows no detectable growth

Compound: C[C@@H]1[C@H](O)[C@@H](C)/C=C/C=C/C=C/C=C/C=C/C=C/C=C/[C@H](O[C@@H]2O[C@H](C)[C@@H](O)[C@H](N)[C@@H]2O)C[C@@H]2O[C@](O)(C[C@@H](O)C[C@@H](O)[C@H](O)CC[C@@H](O)C[C@@H](O)CC(=O)O[C@H]1C)C[C@H](O)[C@H]2C(=O)O [Amphotericin B]
- MRS IC50 [1, 4]: >100 µg/mL
- MRS IC50 [1, 5]: >100 µg/mL
- E. coli IC50 (Escherichia coli; [5]): >100 µg/mL
- L. donovani Amastigote IC50 (L. donovani; amastigote): 0.9 µg/mL
- L. donovani Amastigote/THP IC50 (L. donovani; amastigote/THP): 0.2/0.2 μg/mL
- L. donovani Amastigote/THP IC90 (L. donovani; amastigote/THP, 90% inhibitory concentration): 0.2/0.2 μg/mL
- L. donovani Amastigote IC90 (L. donovani; amastigote, 90% inhibitory concentration): 1.1 µg/mL
- L. donovani Promastigote IC50 (L. donovani; promastigote): 0.3 µg/mL
- L. donovani Promastigote IC90 (L. donovani; promastigote, 90% inhibitory concentration): 0.4 µg/mL
- THP-1 IC50 (THP-1): >2/>2 μg/mL
- THP-1 IC90 (THP-1; 90% inhibitory concentration): >2/>2 μg/mL
- IC50 against C. neoformans (Cryptococcus neoformans; Example 4, column fractions of MS2414 extract (FIG. 7)): 0.15 µg/mL (≈ 0.162 µM)
- C. neoformans IC50 (Cryptococcus neoformans; [4]): 0.24 µg/mL
- C. neoformans IC50 (50% growth inhibitory concentration) (Cryptococcus neoformans; [6]): 0.3 µg/mL
- C. neoformans MIC (minimum inhibitory concentration) (Cryptococcus neoformans; [7]): 0.4 µg/mL
- C. neoformans IC50 (Cryptococcus neoformans; [5]): 0.24 µg/mL
- K pneumoniae IC50 (Klebsiella pneumoniae; [5]): >100 µg/mL
- A. fumigatus IC50 (Aspergillus fumigatus; [4]): 1.407 µg/mL
- A. fumigatus IC50 (50% growth inhibitory concentration) (Aspergillus fumigatus; [6]): 2.4 µg/mL
- A. fumigatus MIC (minimum inhibitory concentration) (Aspergillus fumigatus; [7]): 3.1 µg/mL
- A. fumigatus IC50 (Aspergillus fumigatus; [5]): 1.407 µg/mL
- VRE IC50 [2, 4]: >100 µg/mL
- VRE IC50 [2, 5]: >100 µg/mL
- P. aeruginosa IC50 (Pseudomonas aeruginosa; [5]): >100 µg/mL
- C. albicans IC50 (Candida albicans; [4]): <0.1 µg/mL
- C. albicans IC50 (50% growth inhibitory concentration) (Candida albicans; [6]): 0.4 µg/mL
- C. albicans MIC (minimum inhibitory concentration) (Candida albicans; [7]): 0.8 µg/mL
- C. albicans IC50 (Candida albicans; [5]): <0.1 µg/mL

Compound: CC(C)[C@@H]1NC(=O)[C@@H](C(C)C)NC(=O)[C@@H](NC(=O)CC(O)CCCCCCCCCCCCNC(=N)N)[C@@H](C)OC(=O)[C@@H](C)NC(=O)[C@@H](CC(N)=O)NC(=O)[C@@H]([C@@H](C)O)NC1=O (some centres unmarked) [Fusaricidin A] ({Pentadecanoyl(3ξ-OH,15-Gua)}-T[dV]V[d(aThr)][dN][dA]; ester 1-C)
- activity against MRSA (in words) [1]: strong activity
- activity against VRE (in words) [2]: strong activity
- heat stability [3]: heat stable

Compound: CN[C@H](CC(C)C)C(=O)N[C@H]1C(=O)N[C@@H](CC(N)=O)C(=O)N[C@H]2C(=O)N[C@H]3C(=O)N[C@H](C(=O)N[C@H](C(=O)O)c4cc(O)cc(O)c4-c4cc3ccc4O)[C@H](O)c3ccc(c(Cl)c3)Oc3cc2cc(c3O[C@@H]2O[C@H](CO)[C@@H](O)[C@H](O)[C@H]2O[C@H]2C[C@](C)(N)[C@H](O)[C@H](C)O2)Oc2ccc(cc2Cl)[C@H]1O [Vancomycin]
- IC50 ([1]; Staphylococcus aureus, ATCC 1708 / MRSA, read-out: MRSA IC50 (50% growth inhibitory concentration)): 1.3 µg/mL (≈ 0.897 µM)
- MIC ([1]; Staphylococcus aureus, ATCC 1708 / MRSA, read-out: MRSA MIC (minimum inhibitory concentration)): 1.6 µg/mL (≈ 1.1 µM)
- IC50 ([1]; Staphylococcus aureus, MRSA, read-out: MRS IC50): 0.17 µg/mL (≈ 0.117 µM)
- IC50 (Escherichia coli; Escherichia coli, ATCC2452, read-out: E. coli IC50 (50% growth inhibitory concentration)): 62.3 µg/mL (≈ 43 µM)
- MIC (Escherichia coli; Escherichia coli, ATCC2452, read-out: E. coli MIC (minimum inhibitory concentration)): > 100 µg/mL
- IC50 (Escherichia coli; Escherichia coli, read-out: E. coli IC50): 67.4 µg/mL (≈ 46.5 µM)
- IC50 (Cryptococcus neoformans; Cryptococcus neoformans, read-out: C. neoformans IC50): > 100 µg/mL
- C. neoformans IC50 (Cryptococcus neoformans; [4]): >100 µg/mL
- IC50 (Klebsiella pneumoniae; Klebsiella pneumoniae, read-out: K pneumoniae IC50): > 100 µg/mL
- IC50 (Aspergillus fumigatus; Aspergillus fumigatus, read-out: A. fumigatus IC50): > 100 µg/mL
- A. fumigatus IC50 (Aspergillus fumigatus; [4]): >100 µg/mL
- IC50 ([2]; Enterococcus faecium, ATCC 700221 / VRE, read-out: VRE IC50 (50% growth inhibitory concentration)): > 100 µg/mL
- MIC ([2]; Enterococcus faecium, ATCC 700221 / VRE, read-out: VRE MIC (minimum inhibitory concentration)): > 100 µg/mL
- VRE IC50 [2, 4]: >100 µg/mL
- IC50 ([2]; read-out: VRE IC50): > 100 µg/mL
- IC50 (Pseudomonas aeruginosa; Pseudomonas aeruginosa, ATCC2108, read-out: P. aeruginosa IC50 (50% growth inhibitory concentration)): > 100 µg/mL
- MIC (Pseudomonas aeruginosa; Pseudomonas aeruginosa, ATCC2108, read-out: P. aeruginosa MIC (minimum inhibitory concentration)): > 100 µg/mL
- IC50 (Pseudomonas aeruginosa; Pseudomonas aeruginosa, read-out: P. aeruginosa IC50): > 100 µg/mL
- IC50 (Candida albicans; Candida albicans, read-out: C. albicans IC50): > 100 µg/mL
- C. albicans IC50 (Candida albicans; [4]): >100 µg/mL

Compound: NCCC[C@](N)(C(=O)O)C(F)F [α-Difluoromethylomithine]
- T. brucei IC50 (T. brucei): 5.7 µg/mL
- T. brucei IC90 (T. brucei; 90% inhibitory concentration): 6.6 µg/mL
